Source: patent US10201158B2, “Plant disease control composition and method for controlling plant disease by application of same” (MITSUI CHEMICALS AGRO, INC., priority 2014, dated 2019)
Read-outs that look alike come from different tables or passages of the source.

Columns and labels:
Botrytis cinerea = conditions: in vivo
Pyricularia oryzae = format: in vivo; conditions: for Control value: Table 3-1, treatment concentration 2 ppm
Blumeria graminis = experiment: Barley powdery mildew preventive test; format: in vivo; conditions: Table 4; treatment concentration 2 ppm; 8 days after inoculation
Protocol: Barley plants (variety: Akashinriki) planted in plastic pots having a diameter of 5 cm were grown indoors to the second to fourth leaf stage. Wettable powder containing the compounds indicated in Table 4 were sprayed in the same manner as in Test Example 1, and after the chemical had dried, conidia of Blumeria graminis was inoculated onto the leaves. Following inoculation, the pots were transferred to a constant-temperature chamber (20° C. to 25° C.), and control effects were examined 8 days after inoculation.

Sphaerotheca fuliginea = experiment: Cucumber powdery mildew preventive test; format: in vivo
Protocol: In a greenhouse, cucumber (variety: Sagamihanshiro) planted in a plastic pot having a diameter of 5 cm was grown to the 3rd to 5th-leaf stage. Spray was carried out in the same manner as in Test example 1, and 3 days after the spray, a conidia suspension prepared from Sphaerotheca fuliginea were inoculated on the leaf surface. After inoculation, the pots were placed in a thermostatic greenhouse (20 to 25° C.), and controlling effects were examined after 7 days from the inoculation. In the examination, a ratio of lesion area occupied per one leaf of cucumber was determined according to the same index as in Test example 1, and the control value and the theoretical value according to Colby's formula were similarly calculated.
Wettable powder prepared in compliance with Comparative Preparation Example 4 containing the compounds indicated in Table 7-9 were sprayed to the cucumber leaves, a conidiospore suspension prepared from Sphaerotheca fuliginea was inoculated onto the plants, and the controlling effects were examined in a manner similar to Test Example 6.

Phytophthora infestans = format: in vivo
[1] = test system: Pseudoperonospora cubensis; experiment: Cucumber downy mildew preventive test; format: in vivo; conditions: Table 8, 7 days after inoculation
Protocol: In a greenhouse, cucumber (variety: Sagamihanshiro) planted in a plastic pot having a diameter of 5 cm was grown to the 3rd to 5th-leaf stage. Spray was carried out in the same manner as in Test example 1, and after drying the chemical liquid, the pots were transferred into a greenhouse. After 3 days from the spray, a zoosporangium suspension of Pseudoperonospora cubensis was inoculated. After inoculation, the pots were placed in a high-humidity chamber (20 to 25° C.), transferred into a greenhouse on the next day, and controlling effects were examined after 7 days from the inoculation. A ratio of lesion area occupied per one leaf of cucumber was determined according to the same index as in Test example 1, and the control value and the theoretical value according to Colby's formula were similarly calculated.

Puccinia recondita = experiment: Wheat brown rust preventive test; format: in vivo; conditions: Table 5; treatment concentration 2 ppm; 8 days after inoculation
Protocol: Wheat plants (variety: Norin 61 gou) planted in plastic pots having a diameter of 5 cm were grown indoors to the second to fourth leaf stage. Wettable powder containing the compounds indicated in Table 5 were sprayed in the same manner as in Test Example 1, and after the chemical had dried, a conidia suspension of Puccinia recondita was inoculated onto the leaves. Following inoculation, the pots were placed in the humidified chamber of an artificial inoculation room (20° C. to 23° C.), removed on the following day and then transferred to a greenhouse. Control effects were examined 8 days after inoculation. During the examination, the number of lesions on five leaves of the wheat plants was determined in accordance with the following incidence degree indicators, and control values and theoretical values as determined according to Colby's formula were calculated in the same manner as in Test Example 1.

[2] = Table 6-2, treatment concentration 2 ppm, 5 days after inoculation
[3] = Table 3-5 (Comparative Example 2), treatment concentration 0.4 ppm
[4] = Table 3-2, treatment concentration 10 ppm

For `Cn1cc(C(=O)Nc2cccc3c2[C@@H]2CC[C@H]3C2=C(Cl)Cl)c(C(F)F)n1` (racemic) [Benzovindiflupyr (b-2), Benzovindiflupyr], the Preventive value (Botrytis cinerea) was 40, the Preventive value (Pyricularia oryzae; Table 3-4, group b ingredient alone, treatment concentration 10 + 2 ppm) was 40 and the Control value (Blumeria graminis) was 50.

`CSC(=O)c1cccc2nnsc12` [Acibenzolar-S-methyl (b-72), Acibenzolar-S-methyl] was tested, and the Preventive value (Pyricularia oryzae; Table 3-4, group b ingredient alone, treatment concentration 10 + 10 ppm) was 60 and the Preventive value (Sphaerotheca fuliginea; Table 7-7, treatment concentration 2 ppm, 7 days after inoculation) was 33.

For `CCCCCCCCc1c(CC)nc2ncnn2c1N` [Ametoctradin (b-95), Ametoctradin], the Preventive value (Phytophthora infestans; in vivo) was 40 and the Preventive value ([1]; treatment concentration 2 ppm) was 50.

In the case of `Cc1c(Br)c2ccc(F)cc2n1S(=O)(=O)c1ncn(S(=O)(=O)N(C)C)n1` [Amisulbrom (b-97), Amisulbrom], the Preventive value (Phytophthora infestans; Table 6-2, treatment concentration 0.08 ppm, 5 days after inoculation) is reported as 50 and the Preventive value ([1]; treatment concentration 0.08 ppm) is reported as 67.

`COC(=O)[C@@H](C)N(C(=O)Cc1ccccc1)c1c(C)cccc1C` [Benalaxyl-M (b-75), Benalaxyl-M] showed a Preventive value (Phytophthora infestans; [2]) of 40 and a Preventive value ([1]; treatment concentration 2 ppm) of 67.

For `CCC1(C(=O)N[C@H](C)c2ccc(Cl)cc2)C(C)C1(Cl)Cl` (stereo partly shown) [Carpropamid], the Preventive value (Botrytis cinerea) was 17, the Preventive value (Pyricularia oryzae; [3]) was 67 and the Preventive value (Sphaerotheca fuliginea; in vivo) was 33.

In the case of `CC1CC(C)(C)c2cccc(NC(=O)c3cn(C)nc3C(F)F)c21` (stereo not shown) [Compound of formula (II) (b-3)], the Control value (Botrytis cinerea) is reported as 0, the Control value (Pyricularia oryzae) is reported as 17 and the Control value (Blumeria graminis) is reported as 67.

Work on `CC1(CCl)CCC(Cc2ccc(Cl)cc2)C1(O)Cn1cncn1` (stereo not shown) [Compound of formula (VII)-1 (b-38)] yielded a Control value (Botrytis cinerea) of 7, a Control value (Pyricularia oryzae) of 50 and a Control value (Blumeria graminis) of 81. It also gave a Control value (Puccinia recondita) of 69.

`COc1cc(F)c(-c2c(Cl)nc(C)n2-c2cccc(F)c2)c(F)c1` [Compound of formula (XIV) (b-88)] showed a Control value (Botrytis cinerea) of 14, a Preventive value (Botrytis cinerea) of 50 and a Control value (Pyricularia oryzae) of 50. For the same molecule, the Control value (Blumeria graminis) was 56, the Control value (Puccinia recondita) was 42 and the Preventive value (Sphaerotheca fuliginea; in vivo) was 40.

In the case of `O=C(CO)[C@@H](O)[C@@H](O)[C@H](O)CO` [D-tagatose (b-93), D-tagatose], the Preventive value (Botrytis cinerea) is reported as 33, the Preventive value (Phytophthora infestans; Table 6-3, treatment concentration 5000 ppm, 5 days after inoculation) is reported as 40 and the Preventive value (Sphaerotheca fuliginea; in vivo) is reported as 33.

Molecule `C[C@@H](NC(=O)C(C#N)C(C)(C)C)c1ccc(Cl)cc1Cl` (stereo partly shown) [Diclocymet] has a Preventive value (Botrytis cinerea) of 17, a Preventive value (Pyricularia oryzae; [3]) of 67 and a Preventive value (Sphaerotheca fuliginea; in vivo) of 40.

`CNC(=O)/C(=N/OC)c1ccccc1COc1cc(C)ccc1C` [Dimoxystrobin (b-52), Dimoxystrobin] gave a Preventive value (Botrytis cinerea) of 17, a Preventive value (Pyricularia oryzae; [4]) of 73 and a Control value (Sphaerotheca fuliginea; in vivo) of 60.

With `N#Cc1sc2c(=O)c3ccccc3c(=O)c=2sc1C#N` [Dithianon (b-81), Dithianon] the Preventive value (Botrytis cinerea) was 33 and the Preventive value (Phytophthora infestans; Table 6-3, treatment concentration 2 ppm, 5 days after inoculation) was 33.

`O=C(NCc1ncc(C(F)(F)F)cc1Cl)c1c(Cl)cccc1Cl` [Fluopicolide (b-40), Fluopicolide] showed a Preventive value (Phytophthora infestans; [2]) of 40 and a Preventive value ([1]; treatment concentration 2 ppm) of 67.

Molecule `CO/N=C(/C1=NOCCO1)c1ccccc1Oc1ncnc(Oc2ccccc2Cl)c1F` [Fluoxastrobin (b-51), Fluoxastrobin] has a Preventive value (Botrytis cinerea) of 40, a Preventive value (Pyricularia oryzae; [4]) of 60 and a Control value (Sphaerotheca fuliginea; in vivo) of 60.

For `Cn1cc(C(=O)Nc2ccccc2-c2cc(F)c(F)c(F)c2)c(C(F)F)n1` [Fluxapyroxad (b-1), Fluxapyroxad], the Preventive value (Botrytis cinerea) was 33, the Control value (Pyricularia oryzae) was 17 and the Control value (Blumeria graminis) was 61. It also gave a Control value (Puccinia recondita) of 72.

`Cc1cc(O)no1` [Hymexazol (b-106)] was tested, and the Preventive value (Phytophthora infestans; Table 6-2, treatment concentration 250 ppm, 5 days after inoculation) was 33 and the Preventive value ([1]; treatment concentration 250 ppm) was 17.
